# Legend:
# Type in all cases: functional
# [1] = tested on: Staphylococcus aureus; test: Antimicrobial activity against Methicillin susceptible Staphylococcus aureus 213/7 by twofold dilution technique
# [2] = tested on: Staphylococcus aureus; test: Antimicrobial activity against Methicillin susceptible Staphylococcus aureus 237/7 by twofold dilution technique
# [3] = tested on: Staphylococcus aureus; test: Antimicrobial activity against Methicillin susceptible Staphylococcus aureus 238/7 by twofold dilution technique
# [4] = tested on: Staphylococcus aureus; test: Antimicrobial activity against Methicillin susceptible Staphylococcus aureus 239/7 by twofold dilution technique
# [5] = tested on: Staphylococcus aureus; test: Antimicrobial activity against Methicillin susceptible Staphylococcus aureus 242/7 by twofold dilution technique
# [6] = tested on: Staphylococcus aureus; test: Antimicrobial activity against Methicillin susceptible Staphylococcus aureus 243/7 by twofold dilution technique
# [7] = tested on: Staphylococcus aureus; test: Antimicrobial activity against methicillin-resistant Staphylococcus aureus 140/6 by twofold dilution technique
# [8] = tested on: Staphylococcus aureus; test: Antimicrobial activity against methicillin-resistant Staphylococcus aureus 141/6 by twofold dilution technique
# [9] = tested on: Staphylococcus aureus; test: Antimicrobial activity against methicillin-resistant Staphylococcus aureus 143/6 by twofold dilution technique
# [10] = tested on: Staphylococcus aureus; test: Antimicrobial activity against methicillin-resistant Staphylococcus aureus 144/6 by twofold dilution technique
# [11] = tested on: Staphylococcus aureus; test: Antimicrobial activity against methicillin-resistant Staphylococcus aureus 146/6 by twofold dilution technique
# [12] = tested on: Staphylococcus aureus; test: Antimicrobial activity against methicillin-resistant Staphylococcus aureus 200/7 by twofold dilution technique
# [13] = tested on: Staphylococcus aureus; test: Antimicrobial activity against methicillin-resistant Staphylococcus aureus 217/7 by twofold dilution technique
# [14] = tested on: Staphylococcus aureus; test: Antimicrobial activity against methicillin-resistant Staphylococcus aureus 218/7 by twofold dilution technique
# [15] = tested on: Staphylococcus aureus; test: Antimicrobial activity against methicillin-resistant Staphylococcus aureus 236/7 by twofold dilution technique
# [16] = tested on: Staphylococcus aureus; test: Antimicrobial activity against Staphylococcus aureus NCTC 4163 at 400 ug after 18 hrs by disk diffusion method; conditions: NCTC 4163, 18 h, read-out: DIZ
# [17] = tested on: Staphylococcus epidermidis; test: Antimicrobial activity against Staphylococcus epidermidis ATCC 12228 at 400 ug after 18 hrs by disk diffusion method; conditions: ATCC 12228, 18 h, read-out: DIZ
# [18] = tested on: Bacillus subtilis; test: Antimicrobial activity against Bacillus subtilis ATCC 6633 at 400 ug after 18 hrs by disk diffusion method; conditions: ATCC 6633, 18 h, read-out: DIZ
# [19] = tested on: Bacillus cereus; test: Antimicrobial activity against Bacillus cereus ATCC 11778 at 400 ug after 18 hrs by disk diffusion method; conditions: ATCC 11778, 18 h, read-out: DIZ
# [20] = tested on: Enterococcus hirae; test: Antimicrobial activity against Enterococcus hirae ATCC 10541 at 400 ug after 18 hrs by disk diffusion method; conditions: ATCC 10541, 18 h, read-out: DIZ
# [21] = tested on: Micrococcus luteus; test: Antimicrobial activity against Micrococcus luteus ATCC 9341 at 400 ug after 18 hrs by disk diffusion method; conditions: ATCC 9341, 18 h, read-out: DIZ
# [22] = tested on: Micrococcus luteus; test: Antimicrobial activity against Micrococcus luteus ATCC 10240 at 400 ug after 18 hrs by disk diffusion method; conditions: ATCC 10240, 18 h, read-out: DIZ
# [23] = tested on: Staphylococcus aureus; test: Antimicrobial activity against Staphylococcus aureus ATCC 25923 at 400 ug after 18 hrs by disk diffusion method; conditions: ATCC 25923, 18 h, read-out: DIZ
# [24] = tested on: Staphylococcus aureus; test: Antimicrobial activity against Staphylococcus aureus ATCC 6538 at 400 ug after 18 hrs by disk diffusion method; conditions: ATCC 6538, 18 h, read-out: DIZ
# [25] = tested on: Staphylococcus aureus; test: Antimicrobial activity against Staphylococcus aureus ATCC 29213 at 400 ug after 18 hrs by disk diffusion method; conditions: ATCC 29213, 18 h, read-out: DIZ
# [26] = tested on: Staphylococcus aureus; test: Antimicrobial activity against Staphylococcus aureus NCTC 4163 after 18 hrs by twofold dilution technique; conditions: NCTC 4163, 18 h
# [27] = tested on: Staphylococcus aureus; test: Antimicrobial activity against Staphylococcus aureus ATCC 25923 after 18 hrs by twofold dilution technique; conditions: ATCC 25923, 18 h
# [28] = tested on: Staphylococcus aureus; test: Antimicrobial activity against Staphylococcus aureus ATCC 6538 after 18 hrs by twofold dilution technique; conditions: ATCC 6538, 18 h
# [29] = tested on: Staphylococcus aureus; test: Antimicrobial activity against Staphylococcus aureus ATCC 29213 after 18 hrs by twofold dilution technique; conditions: ATCC 29213, 18 h
# [30] = tested on: Staphylococcus epidermidis; test: Antimicrobial activity against Staphylococcus epidermidis ATCC 12228 by twofold dilution technique
# [31] = tested on: Bacillus subtilis; test: Antimicrobial activity against Bacillus subtilis ATCC 6633 after 18 hrs by twofold dilution technique; conditions: ATCC 6633, 18 h
# [32] = tested on: Bacillus cereus; test: Antimicrobial activity against Bacillus cereus ATCC 11778 after 18 hrs by twofold dilution technique; conditions: ATCC 11778, 18 h
# [33] = tested on: Enterococcus hirae; test: Antimicrobial activity against Enterococcus hirae ATCC 10541 after 18 hrs by twofold dilution technique; conditions: ATCC 10541, 18 h
# [34] = tested on: Micrococcus luteus; test: Antimicrobial activity against Micrococcus luteus ATCC 9341 after 18 hrs by twofold dilution technique; conditions: ATCC 9341, 18 h
# [35] = tested on: Micrococcus luteus; test: Antimicrobial activity against Micrococcus luteus ATCC 10240 by twofold dilution technique
# [36] = tested on: Staphylococcus aureus; test: Antimicrobial activity against methicillin-resistant Staphylococcus aureus 136/6 by twofold dilution technique
# [37] = tested on: Staphylococcus aureus; test: Antimicrobial activity against Methicillin susceptible Staphylococcus aureus 206/7 by twofold dilution technique
# [38] = tested on: Staphylococcus aureus; test: Antimicrobial activity against Methicillin susceptible Staphylococcus aureus 207/7 by twofold dilution technique
# [39] = tested on: Staphylococcus aureus; test: Antimicrobial activity against Methicillin susceptible Staphylococcus aureus 208/7 by twofold dilution technique
# [40] = tested on: Staphylococcus aureus; test: Antimicrobial activity against Methicillin susceptible Staphylococcus aureus 212/7 by twofold dilution technique
compound,measurement,setting,value
Cc1cc2c(c(O)c1-c1c(C)cc3c(c1O)/C(=C/NCCc1cccs1)C(=O)C(O)=C3C(C)C)/C(=C/NCCc1cccs1)C(=O)C(O)=C2C(C)C,MIC,[1],25 µg/mL
same,MIC,[2],50 µg/mL
same,MIC,[3],50 µg/mL
same,MIC,[4],50 µg/mL
same,MIC,[5],12.5 µg/mL
same,MIC,[6],50 µg/mL
same,MIC,[7],50 µg/mL
same,MIC,[8],50 µg/mL
same,MIC,[9],50 µg/mL
same,MIC,[10],50 µg/mL
same,MIC,[11],50 µg/mL
same,MIC,[12],50 µg/mL
same,MIC,[13],100 µg/mL
same,MIC,[14],50 µg/mL
same,MIC,[15],50 µg/mL
same,zone of inhibition at 400 µg/disc,[16],18 mm
same,zone of inhibition at 400 µg/disc,[17],21 mm
same,zone of inhibition at 400 µg/disc,[18],16 mm
same,zone of inhibition at 400 µg/disc,[19],15 mm
same,zone of inhibition at 400 µg/disc,[20],14 mm
same,zone of inhibition at 400 µg/disc,[21],12 mm
same,zone of inhibition at 400 µg/disc,[22],19 mm
same,zone of inhibition at 400 µg/disc,[23],18 mm
same,zone of inhibition at 400 µg/disc,[24],17 mm
same,zone of inhibition at 400 µg/disc,[25],18 mm
same,MIC,[26],50 µg/mL
same,MIC,[27],25 µg/mL
same,MIC,[28],25 µg/mL
same,MIC,[29],25 µg/mL
same,MIC,[30],100 µg/mL
same,MIC,[31],100 µg/mL
same,MIC,[32],50 µg/mL
same,MIC,[33],50 µg/mL
same,MIC,[34],50 µg/mL
same,MIC,[35],50 µg/mL
same,MIC,[36],50 µg/mL
same,MIC,[37],25 µg/mL
same,MIC,[38],50 µg/mL
same,MIC,[39],50 µg/mL
same,MIC,[40],25 µg/mL
